≈ marks a conversion by molar mass, not a printed value.
Assays:
Assay type in all cases: functional
Streptococcus pneumoniae = test: Antibacterial activity against Streptococcus pneumoniae IID553 assessed as bacterial growth inhibition by CLSI protocol agar-based assay
Pseudomonas aeruginosa = test: Antibacterial activity against Pseudomonas aeruginosa PAO1 assessed as bacterial growth inhibition by CLSI protocol agar-based assay
Enterococcus faecium = test: Antibacterial activity against Vanomycin-resistant Enterococcus faecium assessed as bacterial growth inhibition by CLSI protocol agar-based assay
Acinetobacter baumannii = test: Antibacterial activity against Acinetobacter baumannii IID876 assessed as bacterial growth inhibition by CLSI protocol agar-based assay
Escherichia coli = test: Antibacterial activity against Escherichia coli ATCC 25922 assessed as bacterial growth inhibition by CLSI protocol agar-based assay
Staphylococcus aureus = test: Antibacterial activity against methicillin-resistant Staphylococcus aureus OITII-971 assessed as bacterial growth inhibition by CLSI protocol agar-based assay

| Compound | MIC (Streptococcus pneumoniae) | MIC (Pseudomonas aeruginosa) | MIC (Enterococcus faecium) | MIC (Acinetobacter baumannii) | MIC (Escherichia coli) | MIC (Staphylococcus aureus) |
| --- | --- | --- | --- | --- | --- | --- |
| COc1ccc2ncc(F)c(C[C@H](O)C34CCC(NCc5ccc6c(n5)NC(=O)CO6)(CC3)CO4)c2n1 | 0.05 µg/mL (≈ 0.0981 µM) | 8 µg/mL (≈ 15.7 µM) | 0.5 µg/mL (≈ 0.981 µM) | 0.5 µg/mL (≈ 0.981 µM) | 2 µg/mL (≈ 3.93 µM) | 0.02 µg/mL (≈ 0.0393 µM) |
| O=c1ccc2ncc(F)c(C[C@H](O)C34CCC(NC/C=C/c5cc(F)ccc5F)(CC3)CO4)c2n1CCO | 0.5 µg/mL (≈ 0.944 µM) | 64 µg/mL (≈ 121 µM) | 16 µg/mL (≈ 30.2 µM) | 1 µg/mL (≈ 1.89 µM) | 16 µg/mL (≈ 30.2 µM) | 0.5 µg/mL (≈ 0.944 µM) |
| O=c1ccc2ncc(F)c(CCC34CCC(NCc5cc(-c6cccs6)on5)(CC3)CO4)c2n1CCO | 4 µg/mL (≈ 7.62 µM) | > 64 µg/mL | 64 µg/mL (≈ 122 µM) | 128 µg/mL (≈ 244 µM) | > 128 µg/mL | 4 µg/mL (≈ 7.62 µM) |
| O=C1COc2ccc(CNC34CCC([C@@H](O)Cc5c(F)cnc6ccc(=O)n(CCO)c56)(CC3)OC4)nc2N1 | 0.125 µg/mL (≈ 0.232 µM) | 16 µg/mL (≈ 29.7 µM) | 2 µg/mL (≈ 3.71 µM) | 4 µg/mL (≈ 7.41 µM) | 32 µg/mL (≈ 59.3 µM) | 0.031 µg/mL (≈ 0.0575 µM) |
| O=c1ccc2ncc(F)c(CCC34CCC(NCc5cn(-c6ncccn6)cn5)(CC3)CO4)c2n1CCO | > 32 µg/mL | > 128 µg/mL | > 32 µg/mL | > 32 µg/mL | > 32 µg/mL | > 32 µg/mL |
| O=c1ccc2ncc(F)c(C[C@H](O)C34CCC(NCc5cc6c(cn5)OCCO6)(CC3)CO4)c2n1CCO | 2 µg/mL (≈ 3.8 µM) | > 128 µg/mL | 32 µg/mL (≈ 60.8 µM) | 64 µg/mL (≈ 122 µM) | 128 µg/mL (≈ 243 µM) | 2 µg/mL (≈ 3.8 µM) |

Reference: ChEMBL document CHEMBL5223095, “Structure activity relationship of N-1 substituted 1,5-naphthyrid-2-one analogs of oxabicyclooctane-linked novel bacterial topoisomerase inhibitors as broad-spectrum antibacterial agents (Part-9)” (Bioorg Med Chem Lett, 2022)
